Experimental data taken from patent US20250163379A1, “METHOD FOR DIFFERENTIATING HEMATOPOIETIC STEM/PROGENITOR CELLS INTO NK CELLS” (HEMACELL BIOTECHNOLOGY INC., priority 2022, published 2025).

What was measured:
[1] = tested on: hematopoietic stem/progenitor cells; experiment: Inducing differentiation of hematopoietic stem/progenitor cells into NK cells (CD3-CD56+); type: cell-based; conditions: GABA pathway activator in initial differentiation medium; control group 75.6%; FIG. 1
Experimental: (§1) The experiment was carried out according to the following steps: • (1) Inoculating hematopoietic stem/progenitor cells into an initial differentiation medium and culturing at 35-39° C. and 3-7%0CO2 for 5 days; • (2) Continuing culturing cells in NIK differentiation medium I for 3-5 days; • (3) Continuing culturing the cells in NK differentiation medium II; replacing half of the culture medium every 5 to 6 days for 22 to 28 days or until NK cells are obtained. • (4) Basal differentiation medium: DMEM high glucose medium, Ham's F-12Nutrient Mix, GlutaMAX™ supplement medium, heat-inactivated human AB serum, L-glutamic acid, 2-mercaptoethanol, sodium selenite, aminoethanol and L-ascorbic acid. • (5) Initial differentiation medium: basal differentiation medium, SCF (15-25 ng/mL); IL3 (3-7 ng/mL); IL7 (15-25 ng/mL); IL15 (8-12 ng/mL); Flt3-L (8-12 ng/mL); GABA pathway activator. • (6) NK differentiation medium I: basal differentiation medium; SCF (15-25 ng/mL); IL3 (3-7 ng/mL); IL7 (15-25 ng/mL); IL15 (8-12 ng/mL); Flt3-L (8-12 ng/mL). • (7) NK differentiation medium II: basal differentiation medium; SCF (15-25 ng/mL); IL15 (8-12 ng/mL); IL7 (15-25 ng/mL); Flt3-L (8-12 ng/mL).
CD3 is a marker of T cells, CD56 is a marker of NK cells, and the characterization of NK cells is CD3-CD56+. […]

[2] = tested on: hematopoietic stem/progenitor cells; experiment: Flow cytometry analysis of induced NK cells for cytotoxic markers (CD16, CD314, CD335, CD336); type: cell-based; conditions: for efficiency of obtaining CD16+CD56+ NK cells: control group 5.45%, FIG. 2; for efficiency of obtaining CD314+ NK cells: control group 10.1%, FIG. 3; for efficiency of obtaining CD335+ NK cells: control group 12.4%, FIG. 4; for efficiency of obtaining CD336+ NK cells: control group 35.7%, FIG. 5
Experimental: as §1
Flow cytometry analysis of induced NK cells
(1) Collection of NK cells: The cells were centrifuged at 300 g for 5 min; the supernatant was discarded, an equal volume of FACS buffer was added to wash and resuspend the cells, and the cells were centrifuged; the above steps were repeated twice; the cells were centrifuged and the supernatant was discarded, and thereafter, 125 μL of FACS buffer was added to resuspend the cells.
(2) Cell staining: 2.5 μL of labeled antibody was added to the cell suspension (volume ratio of labeled antibody:cell=1:50), the system was mixed well, and allowed to react at room temperature in the dark for 30 min; after centrifugation, the supernatant was discarded; 1 mL of FACS buffer was added to wash and resuspend the cells, the cells were centrifuged, and the above steps were repeated twice; the cells were centrifuged and the supernatant was discarded, and thereafter 250 μL of FACS buffer was added to resuspend the cells, the system was transferred to a Falcon flow tube, and placed on ice; 0.25 μL of DAPI was added before loading, the system was mixed well for later loading and detection.
(3) Preparation of single-color compensation control: The microspheres were mixed evenly by inverting vigorously at least 10 times or pulse vortexing; to each EP tube, 1 drop of UltraCompe Beads was added, then 1 μL of fluorescent antibody conjugate was added, the system was well mixed by blowing-suction with a pipette, and incubated at room temperature in the dark for 30 min; 1 mL of FACS buffer was added to each EP tube, the system was centrifuged at 400 g for 5 min at room temperature; the supernatant was sucked out carefully without removing the beads, and then 250 μL of FACS buffer was added to each test tube; the sample was mixed evenly by flicking or pulse vortexing before analysis.
(4) Detection on the flow cytometer: Before detection, the stained cells were placed on ice to prevent cell aggregation; at least 10,000 cells were tested for each sample; unstained cells were analyzed on the flow cytometer, and appropriate FSC and side scatter SSC as well as the voltage of the fluorescence detector PMT were set. […]

**Q.** With NC/C=C/C(=O)O [TACA, trans-4-aminocrotonic acid] as the compound, how does the “efficiency of obtaining NK cells (CD3-CD56+)” value [1] read?
**A.** 87.2%

**Q.** What about the “efficiency of obtaining CD16+CD56+ NK cells” value [2] of the same compound?
**A.** 9.71%

**Q.** What about the “efficiency of obtaining CD314+ NK cells” value [2] of the same compound?
**A.** 18.4%

**Q.** And the “efficiency of obtaining CD335+ NK cells” value [2]?
**A.** 21.1%

**Q.** And the “efficiency of obtaining CD336+ NK cells” value [2]?
**A.** 48.8%

**Q.** What does the source list for NCCCC(=O)O [GABA, γ-aminobutyric acid]?
**A.** efficiency of obtaining NK cells (CD3-CD56+) [1]: 88.3%; efficiency of obtaining CD16+CD56+ NK cells [2]: 5.86%; efficiency of obtaining CD314+ NK cells [2]: 11.0%; efficiency of obtaining CD335+ NK cells [2]: 18.2%; efficiency of obtaining CD336+ NK cells [2]: 48.2%
